≈ marks a conversion by molar mass, not a printed value.
Columns and labels:
[1] = Inhibition of Staphylococcus aureus SrtA
[2] = Inhibition of Bacillus anthracis SrtA
[3] = Inhibition of Staphylococcus aureus SrtA after 2 hrs
[4] = Inhibition of Staphylococcus aureus SrtA by FRET assay
[5] = Inhibition of Staphylococcus aureus ATCC 6538p recombinant SrtA after 1 hr by spectrometery using Dabcyl-QALPETGEE-Edans as substrate
[6] = Competitive inhibition of Staphylococcus aureus ATCC 6538p recombinant SrtA by spectrometery using Dabcyl-QALPETGEE-Edans as substrate
[7] = Inhibition of Staphylococcus aureus ATCC 6538p SrtA by spectrometery

Clc1ccccc1-c1nn2c(-c3ccncc3)nnc2s1
IC50 [1]: 11.78 µg/mL (≈ 37.5 µM)

CN(C)CCC(=O)c1ccc(Cl)c(Cl)c1
IC50 [2]: 5.6 µM | IC50 [3]: 15 µM

O=C(O)COc1ccccc1C1Nc2cccc3cccc(c23)N1
IC50 [4]: 15.12 µg/mL (≈ 47.2 µM)

CC[C@H](CC[C@@H](C)[C@H]1CC[C@H]2[C@@H]3CC[C@@H]4C[C@@H](O[C@@H]5O[C@H](CO)[C@@H](O)[C@H](O)[C@H]5O)CC[C@]4(C)[C@H]3CC[C@]12C)C(C)C
IC50 [5]: 18.3 µg/mL

CN(C)CCC(=O)c1cccs1
IC50 [2]: 4.8 µM | IC50 [3]: 47 µM

COC(=O)/C(=C/c1ccc(OC)cc1)c1ccc(OC)cc1
IC50 ([5]; read-out: IC50): 231 µM

COc1ccc(/C(C#N)=C/c2cc(OC)ccc2OC)cc1
Ki [6]: 6.81 µM | IC50 ([5]; read-out: IC50): 9.2 µM

COc1ccc(/C=C(\C#N)c2ccc(OC)cc2)cc1
IC50 ([5]; read-out: IC50): 28 µM

COc1ccc2cc3[n+](cc2c1OC)CCc1cc2c(cc1-3)OCO2.[Cl-] [BERBERINE CHLORIDE]
IC50 [5]: 8.7 µg/mL

COc1cc(/C=C/C(=O)CC(=O)/C=C/c2ccc(O)c(OC)c2)ccc1O [CURCUMIN]
IC50 [7]: 13.8 µg/mL (≈ 37.5 µM)

C=C(C)[C@H](CCC(C)(C)O)Cc1c(O)cc(OC)c2c1O[C@H](c1ccc(O)cc1O)CC2=O [KURARINOL]
IC50 [1]: 48.8 µg/mL (≈ 107 µM)
